Experimental data from the supplement of paper PMC10307832.

What was measured:
Assay in all cases: relative viability (nuclei count vs DMSO), 5 days (fraction); higher = more cells survive
[1] = compound: COC1=C(C=C(C=C1)C2=CC3=NC=CN3C(=N2)NC4=C(C=CC=N4)C(=O)N)OC [BAY61-3606] + CS(=O)(=O)CCNCc1ccc(-c2ccc3ncnc(Nc4ccc(OCc5cccc(F)c5)c(Cl)c4)c3c2)o1 [Lapatinib] (partner 2 µM)
Method in brief: (§1)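 For relative viability, nuclei counts in treated wells were divided by those in vehicle wells. Lung cancer cell lines had been pin-tool dosed in 1536-well plates the day after seeding and cultured for 5 days, then fixed and stained in one step (final 0.05% Triton X-100, 1% formaldehyde, 1 ug/ml Hoechst) and imaged at 4×. Doses were one drug alone or a fixed anchor-drug dose plus five library-drug doses (not always all listed) in √10 steps, and values are duplicate-plate medians.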

[2] = compound: COc1cccc2c1C(=O)c1c(O)c3c(c(O)c1C2=O)C[C@@](O)(C(=O)CO)C[C@@H]3O[C@H]1C[C@H](N)[C@H](O)[C@H](C)O1 [Doxorubicin] + Cc1nc(NC(=O)N2CCC[C@H]2C(N)=O)sc1-c1ccnc(C(C)(C)C(F)(F)F)c1 [Alpelisib] (partner 2 µM)
Method in brief: as §1

[3] = compound: COc1cccc2c1C(=O)c1c(O)c3c(c(O)c1C2=O)C[C@@](O)(C(=O)CO)C[C@@H]3O[C@H]1C[C@H](N)[C@H](O)[C@H](C)O1 [Doxorubicin] + O=C(c1cc(Cc2n[nH]c(=O)c3ccccc23)ccc1F)N1CCN(C(=O)C2CC2)CC1 [Olaparib] (partner 8 µM)
Method in brief: as §1

[4] = compound: COc1cccc2c1C(=O)c1c(O)c3c(c(O)c1C2=O)C[C@@](O)(C(=O)CO)C[C@@H]3O[C@H]1C[C@H](N)[C@H](O)[C@H](C)O1 [Doxorubicin] + Cc1cc(Nc2cc(N3CCN(C)CC3)nc(Sc3ccc(NC(=O)C4CC4)cc3)n2)n[nH]1 [Tozasertib] (partner 0.1 µM)
Method in brief: as §1

Cell Line	relative viability ([1]; first compound 0.02 µM)	relative viability ([1]; first compound 0.06325 µM)	relative viability ([1]; first compound 0.2 µM)	relative viability ([1]; first compound 0.6325 µM)	relative viability ([1]; first compound 2 µM)	relative viability ([2]; first compound 0.001 µM)	relative viability ([2]; first compound 0.003162 µM)	relative viability ([2]; first compound 0.01 µM)	relative viability ([2]; first compound 0.03162 µM)	relative viability ([2]; first compound 0.1 µM)	relative viability ([3]; first compound 0.001 µM)	relative viability ([3]; first compound 0.003162 µM)	relative viability ([3]; first compound 0.01 µM)	relative viability ([3]; first compound 0.03162 µM)	relative viability ([3]; first compound 0.1 µM)	relative viability ([4]; first compound 0.003162 µM)	relative viability ([4]; first compound 0.01 µM)	relative viability ([4]; first compound 0.03162 µM)	relative viability ([4]; first compound 0.1 µM)	relative viability ([4]; first compound 0.001 µM)
HCC-15	0.891	0.921	0.851	0.875	0.792	0.85	0.939	0.633	0.727	0.573	0.731	0.657	0.692	0.522	0.491	0.428	0.454	0.201	0.116	–
HCC-44	1.02	1.02	1.02	1.06	1.21	0.823	0.801	0.751	0.78	0.93	0.929	1	0.997	1.01	0.993	0.882	0.797	0.284	0.321	0.767
HCC-78	0.949	0.682	0.82	0.702	0.959	0.374	0.269	0.548	0.298	0.312	0.866	0.994	1.04	0.799	0.701	0.44	0.403	0.353	0.388	0.491
HCC-366	1.05	1.09	1.13	1.08	0.955	–	0.348	0.439	0.369	0.367	0.33	0.348	0.361	0.209	0.25	0.156	0.179	0.106	0.158	–
HCC-827	0.2	0.2	0.206	0.226	0.217	1.04	1.15	0.968	1.02	1.05	0.653	0.65	0.66	0.62	0.579	0.391	0.407	0.416	0.432	0.45
HOP-62	0.918	–	1.05	1.06	1.07	0.873	1.26	1.15	0.879	0.934	0.396	0.56	0.365	0.42	0.296	0.414	0.402	0.352	0.405	0.376
IA-LM	0.92	0.841	–	0.981	0.58	0.675	0.742	0.669	0.544	0.427	0.796	0.889	0.954	0.754	0.673	–	–	–	–	–
LC-2-ad	1.02	0.97	0.951	0.898	0.979	0.892	0.87	0.924	0.859	0.724	0.343	0.679	0.707	0.707	0.696	0.402	0.401	0.246	0.239	0.455
